Assay results: article PMC6410080 (Viruses, 2019)
Where a name gives a salt, the structure may show the parent alone. Read-outs that look alike come from different tables or passages of the source.

Legend:
viruses/VLPs tested = assay type: cell-based
[1] = tested on: DID-labelled SFV hemifusion/fusion; assay type: cell-based, Semliki Forest virus; conditions: HeLa Kyoto, 10 μM (20 μM Raloxifene; Bafilomycin 100 nM), 40 min at 37 °C
SFV [2] = assay type: cell-based, Semliki Forest virus
DENV-2 = DENV-2 infection assay / secondary screen (E protein staining); assay type: cell-based, dengue virus serotype 2; conditions: Dengue virus, DENV2, Huh-7, 24 h; for inhibition at 10 µM: read-out: % inhibition (DENV-2 screen)
Huh7 cells = experiment: MTT assay, Huh7 cells; conditions: for TC50 DENV-2 (7 + 17 h): Huh7, compounds 7 h then compound-free media 17 h; for TC50 DENV-2 (24 h): Huh7, compounds 24 h
SFV [3] = experiment: microbe, parasite or virus in culture; assay type: cell-based, Semliki Forest virus; conditions: Semliki Forest virus; for inhibition at 10 µM: M-HeLa, 7 h, read-out: % inhibition (SFV screen); for IC50: HeLa Kyoto, read-out: IC50 SFV (7 h)
RABV VLP = experiment: microbe, parasite or virus in culture; assay type: cell-based, rabies virus; conditions: for IC50: Lyssavirus rabies, HeLa Kyoto, 24 h, read-out: IC50 RABV
VSV VLP = experiment: microbe, parasite or virus in culture; assay type: cell-based, vesicular stomatitis virus; conditions: Vesicular stomatitis virus, HeLa Kyoto, 24 h, read-out: IC50 VSV
HeLa Kyoto cells = conditions: human
HSV-1 = experiment: microbe, parasite or virus in culture; assay type: cell-based, herpes simplex virus 1; conditions: 8 h; for IC50: Human alphaherpesvirus 1, Vero, read-out: IC50 HSV (Vero)
YF17D = experiment: organism not typed; assay type: cell-based, yellow fever 17D; conditions: Huh-7, read-out: IC50 YF17D
HIV-1 = experiment: microbe, parasite or virus in culture; assay type: cell-based, human immunodeficiency virus type 1; conditions: for IC50 HIV: virus, HeLa TZM-bl, 24 h
HCV = experiment: microbe, parasite or virus in culture; assay type: cell-based, hepatitis C virus; conditions: Hepatitis C virus, Huh7.5, read-out: IC50 HCV
in vitro [4] = conditions: human
EBOV VLP = experiment: microbe, parasite or virus in culture; assay type: cell-based, Ebola virus; conditions: Zaire ebolavirus, HeLa Kyoto, 48 h, read-out: IC50 EBOV
H5N1 VLP = experiment: microbe, parasite or virus in culture; assay type: cell-based, influenza H5N1; conditions: for IC50: Influenza A virus, H5N1, HeLa Kyoto, 48 h, read-out: IC50 H5N1
DENV-3 = experiment: microbe, parasite or virus in culture; assay type: cell-based, dengue virus; conditions: Dengue virus, DENV3, Huh-7, read-out: IC50 DENV-3
SINV = experiment: microbe, parasite or virus in culture; assay type: cell-based, Sindbis virus; conditions: Sindbis virus, HeLa Kyoto, read-out: IC50 SINV
in vitro [5] = conditions: human, % viability (SFV screen)
VACV = experiment: microbe, parasite or virus in culture; assay type: cell-based, vaccinia virus; conditions: for IC50: Orthopoxvirus vaccinia, HeLa Kyoto, 8 h, read-out: IC50 VACV
ZIKV = experiment: microbe, parasite or virus in culture; assay type: cell-based, Zika virus; conditions: for IC50: Zika virus, Huh-7, read-out: IC50 ZIKV
DENV-1 = experiment: microbe, parasite or virus in culture; assay type: cell-based, dengue virus; conditions: Dengue virus, DENV1, Huh-7, read-out: IC50 DENV-1
SFV E1 trimer formation = conditions: HeLa Kyoto, MOI 100; Chloroquine 100 μM
[6] = tested on: Renilla luciferase expression (protein synthesis); assay type: cell-based
SFV internalisation = assay type: cell-based, Semliki Forest virus
VSV_Blam_VLP fusion = experiment: microbe, parasite or virus in culture; assay type: cell-based; conditions: Vesicular stomatitis virus, HeLa Kyoto, read-out: Inhibition of VSV_Blam_VLP fusion compared to DMSO controls
[7] = in vivo
in vivo = conditions: CD1, mouse, ip, 10 mg/kg
[8] = read-out: IC50 DENV-2 (7 + 17 h)

SMILES | Viruses Inhibited (viruses/VLPs tested) | Inhibition of DID-SFV de-quenching (in words) [1] | Activity when added before SFV or 30 and 60 min after internalisation (SFV [2]) | Time of Addition (SFV [2]) | inhibition at 10 µM (DENV-2) [%] | TC50 DENV-2 (7 + 17 h) (Huh7 cells) [µM] | TC50 DENV-2 (24 h) (Huh7 cells) [µM] | inhibition at 10 µM (SFV [3]) [%] | IC50 (VSV VLP) [µM] | TC50 SFV (7 h) (HeLa Kyoto cells) [µM] | TC50 SFV (7h) (HeLa Kyoto cells) [µM] | IC50 (YF17D) [µM] | IC50 (DENV-2; [8]) [µM] | IC50 (DENV-2; read-out: IC50 DENV-2 (24 h)) [µM] | IC50 (HCV) [µM] | viability at 10 µM (in vitro [4]) [%] | IC50 (EBOV VLP) [µM] | IC50 (DENV-3) [µM] | IC50 (SFV [3]) [µM] | IC50 (SINV) [µM] | also measured
CCCCc1oc2ccccc2c1C(=O)c1cc(I)c(OCCN(CC)CC)c(I)c1 [Amiodarone, Amiodarone hydrochloride] | Endosomal pH-dep. | Intermediate levels of inhibition | act exclusively before (or at the stage of) fusion | Before fusion | 92.9 | 40.6 | ~25.5 | 85.5 | – | – | – | – | – | – | – | – | – | – | – | – | –
CCN(CC)Cc1cc(Nc2ccnc3cc(Cl)ccc23)ccc1O [Amodiaquine, Amodiaquine dihydrochloride dihydrate] | Endosomal pH-dep. | Intermediate levels of inhibition | act exclusively before (or at the stage of) fusion | Before fusion | 92.1 | 44.2 | 18.4 | 73.3 | 11.2 | >50 | >50000 | 5.3 | 12.7 | 17.2 | 4.2 | 79 | 0.9 | ~25 | 8.5 | 11.3 | IC50 (RABV VLP): 23.5 µM; IC50 (HSV-1): 28.2 µM; IC50 HIV (HIV-1): No inhibition; IC50 (H5N1 VLP): 13.6 µM; viability at 10 µM (in vitro [5]): 115%; IC50 VACV (VACV): No inhibition; IC50 ZIKV (ZIKV): No inhibition; IC50 (DENV-1): ~24.8 µM
CO/C1=C\C(C)=C\[C@@H](C)[C@@H](O)[C@@H](C)C/C(C)=C/C=C/[C@H](OC)[C@@H]([C@@H](C)[C@@H](O)[C@H](C)[C@@]2(O)C[C@@H](O)[C@H](C)[C@@H](C(C)C)O2)OC1=O [Bafilomycin] | – | Strong inhibition of de-quenching | – | – | – | – | – | – | – | – | – | – | – | – | – | – | – | – | – | – | –
CC(C)COCC(CN(Cc1ccccc1)c1ccccc1)N1CCCC1 (stereo not shown) [Bepridil, Bepridil hydrochloride] | Endosomal pH-dep. | Intermediate levels of inhibition | act exclusively before (or at the stage of) fusion | Before fusion | 97.8 | ~48.8 | ~23.4 | 91.2 | 10.4 | 34.9 | 34900 | 7.1 | 15.2 | 12.1 | ~12.4 | 48.7 | 0.8 | ~20 | 9.5 | 14.6 | IC50 (RABV VLP): 6.9 µM; IC50 HSV (Vero) (HSV-1; virus, Vero cells): No inhibition; IC50 HIV (HIV-1): No inhibition; IC50 (H5N1 VLP): 8.2 µM; viability at 10 µM (in vitro [5]): 71.3%; IC50 (VACV): 26.8 µM; IC50 (ZIKV): ~25.2 µM; IC50 (DENV-1): ~20 µM
CCN(CC)CCCC(C)Nc1ccnc2cc(Cl)ccc12 (stereo not shown) [Chloroquine] | – | – | – | – | – | – | – | – | – | – | – | – | – | – | – | – | – | – | – | – | SFV E1 trimer formation (SFV E1 trimer formation): prevented trimer formation
O=C(Nc1ccc([N+](=O)[O-])cc1Cl)c1cc(Cl)ccc1O [Niclosamide] | All tested | Strong inhibition of de-quenching | minor but reproducible decrease in activity | Before and after fusion | 75.4 | >50 | 12.8 | 73.1 | 3.5 | >50 | >50000 | < 0.3 | 1.1 | 0.4 | 0.2 | 36.9 | 2.9 | 1.6 | 3 | 2.8 | IC50 (RABV VLP): 1.3 µM; Decrease of Renilla signal (protein synthesis) [6]: more than 50%; IC50 (HSV-1): 1.3 µM; IC50 (HIV-1; Human immunodeficiency virus 1, 24 h, read-out: IC50 HIV): 3.3 µM; Internalised SFV E1/E2 after subtilisin treatment (SFV internalisation): Loss of E1/E2; Kinetics of SFV internalisation (subtilisin resistance) (SFV internalisation): remained lower compared to untreated control; inhibition at 10 µM (VSV_Blam_VLP fusion): > 50%; IC50 (H5N1 VLP): 1.4 µM; Peak blood concentration ([7]; CD1, mouse): 40 µM; Blood level after 2 h ([7]; mouse): undetectable; Tmax (in vivo): 15 min; SFV E1 trimer formation (SFV E1 trimer formation): No trimers were observed; viability at 10 µM (in vitro [5]): 104%; IC50 (VACV): 3 µM; IC50 (ZIKV): ~0.7 µM; IC50 (DENV-1): 1.5 µM
O=C(c1ccc(OCCN2CCCCC2)cc1)c1c(-c2ccc(O)cc2)sc2cc(O)ccc12 [Raloxifene, Raloxifene hydrochloride] | Unclear pattern | Intermediate levels of inhibition | minor but reproducible decrease in activity | Before and after fusion | 80 | 24.8 | ~22.63 | 87.7 | 12.7 | >50 | >50000 | 7.8 | 5.7 | 9.8 | 3.9 | 60.4 | 1.4 | 5.3 | 15.1 | 30.6 | IC50 RABV (RABV VLP): No inhibition; IC50 (HSV-1): 23.5 µM; IC50 HIV (HIV-1): No inhibition; inhibition at 10 µM (VSV_Blam_VLP fusion): > 50%; IC50 H5N1 (H5N1 VLP): No inhibition; viability at 10 µM (in vitro [5]): 92%; IC50 (VACV): 20 µM; IC50 (DENV-1): 8.8 µM
